In PMC6412051 (Scientific Reports, 2019):

Tests used:
[1] = Formation/stability constant by continuous variation (Job's) method; type: physicochemical; conditions: equimolar solutions in methanol, room temperature
Excerpt: In Fig. 1, the extrapolated value at the point of cross section on the Job’s curve corresponds to the total absorbance of the complex, if the complex formation had been completed. Since the complex is dissociative in nature, the actual absorbance is somewhat lower than the absorbance […].
The colour of the solution changed from brown to orange. Wavelength of maximum absorbance was noted against a blank, which appeared at 296 nm. All the measurements were made at 296 nm.

[2] = oral administration; cited from earlier work

| Compound | formation constant of the complex (log K) [1] | bioavailability [2] |
| --- | --- | --- |
| [Ru(p-cymene)Cl(SPR)] | 5.45 | – |
| CCN1CCCC1CNC(=O)c1cc(S(N)(=O)=O)ccc1OC (centres unmarked) [SPR, Sulpiride] | – | approximately 30% |
